Test results: patent US7872004B2, “6-(heterocyclyl-substituted benzyl)-4-oxoquinoline compound and use thereof as HIV integrase inhibitor” (Japan Tobacco Inc., priority 2006, dated 2011)

biological target: T1, HIV integrase (Human immunodeficiency virus type 1 group M subtype B, UniProt P12497, F1332H); assay: Determination of enzyme (HIV integrase) inhibitory activity; assay type: biochemical, HIV (Human Immunodeficiency Virus (type 1)); conditions: recombinant integrase protein (F185H), strand transfer plate assay, absorbance at 450 nm
T1 construct: HIV integrase full length gene; made in house; host or cells: Escherichia coli BL21(DE3)
Excerpt: The following explains evaluation methods of the HIV integrase inhibitory activity of the compound of the present invention.
(i) Construction of Recombinant Integrase Gene Expression System
HIV integrase full length gene (J. Virol., 67, 425-437 (1993)) in which phenylalanine at codon 185 was substituted by histidine, was inserted between the restriction enzyme NdeI and XhoI sites of plasmid pET21a(+) (Novagen), whereby an integrase expression vector pET21a-IN-F185H was constructed.
(ii) Production and Purification of Integrase Protein
Escherichia coli recombinant BL21(DE3) transformed with plasmid pET21a-IN-F185H obtained in (i) was shake cultured at 30° C. in a liquid medium containing ampicillin. When the culture reached the logarithmic growth phase, isopropyl-β-D-thiogalactopyranoside was added to promote expression of integrase gene. The culture was continued for 3 hr to promote accumulation of the integrase protein. The recombinant E. coli was collected in pellets by centrifugal separation and preserved at −80° C.
The E. coli was suspended in Lysis buffer ([…] HEPES (pH 7.5), 5 mM DTT, 10 mM CHAPS, 10% glycerol) containing 1M sodium chloride and subjected to repeat pressurization and depressurization for rupture, and centrifugal separation at 4° C., 40,000×g, 60 min to recover a water-soluble fraction (supernatant). This was diluted 10-fold with Lysis buffer free of sodium chloride, mixed with SP-Sepharose (GE healthcare Bioscience) and stirred at 4° C. for 60 min to allow adsorption of integrase protein to the resin. The resin was washed with Lysis buffer containing 100 mM sodium chloride and the integrase protein was eluted with Lysis buffer containing 1M sodium chloride.
The eluted integrase protein solution was subjected to a Superdex 75 (GE healthcare Bioscience) column for gel filtration. The protein was eluted with Lysis buffer containing 1M sodium chloride.
The obtained fractions of the integrase protein were collected and preserved at −80° C.
(iii) Preparation of DNA Solution
The following DNA synthesized by Greiner or FASMAC was dissolved in TE buffer (10 mM Tris-hydrochloric acid (pH 8.0), 1 mM EDTA) and mixed with donor DNA, target DNA, and each complementary strand (+ and − strands) to 1 μM. The mixture was heated at 95° C. for 5 min, 80° C. for 10 min, 70° C. for 10 min, 60° C. for 10 min, 50° C. for 10 min and 40° C. for 10 min and kept at 25° C. to give a double stranded DNA, which was used for the test.
(iv) Determination of Enzyme (HIV Integrase) Inhibitory Activity
The donor DNA was diluted with TE buffer to 10 nM (or 5 nM), of which 50 μl was added to each well of streptavidin-coated microtiter plate (Roche) and allowed to adsorb at 37° C. for 60 min. The plate was washed with phosphate buffer (Dulbecco's PBS, Sanko Junyaku Co., Ltd.) containing 0.1% Tween 20 and phosphate buffer. Then, an enzyme reaction mixture (70 μl), a test substance (10 μl) diluted with the enzyme reaction mixture and 100 μg/ml (or 64 μg/ml (2 μM)) integrase protein (10 μl) were added to each well and reacted at 37° C. for 60 min.
Composition of the enzyme reaction mixture: 30 mM MOPS (3-morpholinopropanesulfonic acid), 5 mM magnesium chloride, 3 mM DTT (dithiothreitol), 0.1 mg/ml BSA (bovine serum albumin), 5% glycerol, 10% DMSO (dimethyl sulfoxide), 0.01% Tween 20.
Then, 50 nM (or 25 nM) target DNA (10 μl) was added, reacted at 37° C. for 10 min and washed with phosphate buffer containing 0.1% Tween 20 to stop the reaction.
Then, 100 mU/ml peroxidase labeled anti-digoxigenin antibody solution (Roche, 100 μl) was added, and the mixture was reacted at 37° C. for 60 min, followed by washing with phosphate buffer containing 0.1% Tween 20.
A peroxidase color solution (Bio Rad, 100 μl) was added and allowed to react at room temperature for 4 min (or 3 min). The color reaction was stopped by adding IN sulfuric acid (100 μl). The absorbance at 450 nm was measured. […]

`COc1cc2c(cc1Cc1cc(N3CCOCC3)cc(Cl)c1F)c(=O)c(C(=O)O)cn2[C@H](CO)[C@@H](C)OC` [Example 15, 6-[3-chloro-2-fluoro-5-(morpholin-4-yl)benzyl]-1-((1R,2R)-1-hydroxymethyl-2-methoxypropyl)-7-methoxy-4-oxo-1,4-dihydroquinoline-3-carboxylic acid] and `COc1cc2c(cc1Cc1cc(N3CCOCC3)cc(Cl)c1F)c(=O)c(C(=O)O)cn2[C@H](CO)[C@H](C)OC` [Example 28, 6-[3-chloro-2-fluoro-5-(morpholin-4-yl)benzyl]-1-((1R,2S)-1-hydroxymethyl-2-methoxypropyl)-7-methoxy-4-oxo-1,4-dihydroquinoline-3-carboxylic acid] cannot be ordered by IC50: < 10 nM for the first, < 10 nM for the second.

`CCc1cc2c(cc1Cc1cc(N3CCCC3=O)cc(Cl)c1F)c(=O)c(C(=O)O)cn2[C@H](CO)[C@@H](C)OC` [Example 41, 6-[3-chloro-2-fluoro-5-(2-oxopyrrolidin-1-yl)benzyl]-7-ethyl-1-((1R,2R)-1-hydroxymethyl-2-methoxypropyl)-4-oxo-1,4-dihydroquinoline-3-carboxylic acid] and `CCO[C@H](C)[C@@H](CO)n1cc(C(=O)O)c(=O)c2cc(Cc3cc(N4CCCC4=O)cc(Cl)c3F)c(CC)cc21` [Example 40, 6-[3-chloro-2-fluoro-5-(2-oxopyrrolidin-1-yl)benzyl]-1-[(1R,2R)-2-ethoxy-1-(hydroxymethyl)propyl]-7-ethyl-4-oxo-1,4-dihydroquinoline-3-carboxylic acid] fall in the same range of IC50: 10 to 100 nM for the first, 10 to 100 nM for the second.

`CCc1cc2c(cc1Cc1cc(N3CCCC3=O)cc(Cl)c1F)c(=O)c(C(=O)O)cn2[C@H](CO)C(C)(C)C` [Example 52, 6-[3-chloro-2-fluoro-5-(2-oxopyrrolidin-1-yl)benzyl]-7-ethyl-1-((S)-1-hydroxymethyl-2,2-dimethylpropyl)-4-oxo-1,4-dihydroquinoline-3-carboxylic acid] and `CCc1cc2c(cc1Cc1cc(N3CCCC3=O)cc(Cl)c1F)c(=O)c(C(=O)O)cn2[C@H](CO)C(C)C` [Example 24, 6-[3-chloro-2-fluoro-5-(2-oxopyrrolidin-1-yl)benzyl]-7-ethyl-1-((S)-1-hydroxymethyl-2-methylpropyl)-4-oxo-1,4-dihydroquinoline-3-carboxylic acid] fall in the same range of IC50: 10 to 100 nM for the first, 10 to 100 nM for the second.

`COc1cc2c(cc1Cc1cc(N3CCC(=O)N3C)cc(Cl)c1F)c(=O)c(C(=O)O)cn2[C@H](CO)C(C)C` [Example 10, 6-[3-chloro-2-fluoro-5-(2-methyl-3-oxopyrazolidin-1-yl)benzyl]-1-((S)-1-hydroxymethyl-2-methylpropyl)-7-methoxy-4-oxo-1,4-dihydroquinoline-3-carboxylic acid] and `COc1cc2c(cc1Cc1cc(N3CCCC3=O)cc(Cl)c1F)c(=O)c(C(=O)O)cn2[C@H](CO)C(C)C` [Example 2, 6-[3-chloro-2-fluoro-5-(2-oxopyrrolidin-1-yl)benzyl]-1-((S)-1-hydroxymethyl-2-methylpropyl)-7-methoxy-4-oxo-1,4-dihydroquinoline-3-carboxylic acid] cannot be ordered by IC50: < 10 nM for the first, < 10 nM for the second.

`CCc1cc2c(cc1Cc1cc(N3CCOCC3)cc(Cl)c1F)c(=O)c(C(=O)O)cn2[C@H](CO)COC` [Example 20, 6-[3-chloro-2-fluoro-5-(morpholin-4-yl)benzyl]-7-ethyl-1-[(R)-2-hydroxy-1-(methoxymethyl)ethyl]-4-oxo-1,4-dihydroquinoline-3-carboxylic acid] and `COC[C@@H](CO)n1cc(C(=O)O)c(=O)c2cc(Cc3cc(N4CCOCC4)cc(Cl)c3F)c(OC)cc21` [Example 22, 6-[3-chloro-2-fluoro-5-(morpholin-4-yl)benzyl]-1-[(R)-2-hydroxy-1-(methoxymethyl)ethyl]-7-methoxy-4-oxo-1,4-dihydroquinoline-3-carboxylic acid] cannot be ordered by IC50: < 10 nM for the first, < 10 nM for the second.

`COc1cc2c(cc1Cc1cc(N3CCSCC3)cc(Cl)c1F)c(=O)c(C(=O)O)cn2[C@H](CO)C(C)C` [Example 27, 6-[3-chloro-2-fluoro-5-(thiomorpholin-4-yl)benzyl]-1-((S)-1-hydroxymethyl-2-methylpropyl)-7-methoxy-4-oxo-1,4-dihydroquinoline-3-carboxylic acid] and `COc1cc2c(cc1Cc1cc(N3CCN(C(C)=O)CC3)cc(Cl)c1F)c(=O)c(C(=O)O)cn2[C@H](CO)C(C)C` [Example 11, 6-[5-(4-acetylpiperazin-1-yl)-3-chloro-2-fluorobenzyl]-1-((S)-1-hydroxymethyl-2-methylpropyl)-7-methoxy-4-oxo-1,4-dihydroquinoline-3-carboxylic acid] cannot be ordered by IC50: < 10 nM for the first, < 10 nM for the second.

`CCOC[C@@H](CO)n1cc(C(=O)O)c(=O)c2cc(Cc3cc(N4CCOCC4)cc(Cl)c3F)c(OC)cc21` [Example 19, 6-[3-chloro-2-fluoro-5-(morpholin-4-yl)benzyl]-1-((R)-1-ethoxymethyl-2-hydroxyethyl)-7-methoxy-4-oxo-1,4-dihydroquinoline-3-carboxylic acid] and `CCOC[C@@H](CO)n1cc(C(=O)O)c(=O)c2cc(Cc3cc(N4CCCC4=O)cc(Cl)c3F)c(OC)cc21` [Example 39, 6-[3-chloro-2-fluoro-5-(2-oxopyrrolidin-1-yl)benzyl]-1-((R)-1-ethoxymethyl-2-hydroxyethyl)-7-methoxy-4-oxo-1,4-dihydroquinoline-3-carboxylic acid] cannot be ordered by IC50: < 10 nM for the first, < 10 nM for the second.

`COCC[C@@H](CO)n1cc(C(=O)O)c(=O)c2cc(Cc3cc(N4CCCC4=O)cc(Cl)c3F)c(OC)cc21` [Example 47, 6-[3-chloro-2-fluoro-5-(2-oxopyrrolidin-1-yl)benzyl]-1-((S)-1-hydroxymethyl-3-methoxypropyl)-7-methoxy-4-oxo-1,4-dihydroquinoline-3-carboxylic acid] and `CCc1cc2c(cc1Cc1cc(N3CCOCC3)cc(Cl)c1F)c(=O)c(C(=O)O)cn2[C@H](CO)[C@H](C)OC` [Example 35, 6-[3-chloro-2-fluoro-5-(morpholin-4-yl)benzyl]-7-ethyl-1-((1R,2S)-1-hydroxymethyl-2-methoxypropyl)-4-oxo-1,4-dihydroquinoline-3-carboxylic acid] fall in the same range of IC50: 10 to 100 nM for the first, 10 to 100 nM for the second.

First: CC(C)(C)[C@@H](CO)n1cc(C(=O)O)c(=O)c2cc(Cc3cc(N4CCOCC4)cc(Cl)c3F)ccc21 [Example 53, 6-[3-chloro-2-fluoro-5-(morpholin-4-yl)benzyl]-1-((S)-1-hydroxymethyl-2,2-dimethylpropyl)-4-oxo-1,4-dihydroquinoline-3-carboxylic acid]
Second: CC(C)(C)[C@H](CO)n1cc(C(=O)O)c(=O)c2cc(Cc3cc(N4CCOCC4)c(F)c(Cl)c3F)ccc21 [Example 59, 6-[3-chloro-2,4-difluoro-5-(morpholin-4-yl)benzyl]-1-((R)-1-hydroxymethyl-2,2-dimethylpropyl)-4-oxo-1,4-dihydroquinoline-3-carboxylic acid]
The IC50 of the first is lower: < 10 nM for the first, 10 to 100 nM for the second.

`CC(C)(C)[C@@H](CO)n1cc(C(=O)O)c(=O)c2cc(Cc3cc(N4CCOCC4)c(F)c(Cl)c3F)ccc21` [Example 56, 6-[3-chloro-2,4-difluoro-5-(morpholin-4-yl)benzyl]-1-((S)-1-hydroxymethyl-2,2-dimethylpropyl)-4-oxo-1,4-dihydroquinoline-3-carboxylic acid] and `CCc1cc2c(cc1Cc1cc(N3CCOCC3)cc(Cl)c1F)c(=O)c(C(=O)O)cn2[C@H](CO)[C@@H](C)OC` [Example 34, 6-[3-chloro-2-fluoro-5-(morpholin-4-yl)benzyl]-7-ethyl-1-((1R,2R)-1-hydroxymethyl-2-methoxypropyl)-4-oxo-1,4-dihydroquinoline-3-carboxylic acid] cannot be ordered by IC50: < 10 nM for the first, < 10 nM for the second.
